From patent EP0647136B1, “USE OF CONDENSED BIS-(3,4-DIHYDRO-PYRIDINYL)METHANE FOR TREATING CROHN'S DISEASE, COLITIS ULCEROSA, CHRONIC INFLAMATORY PROCESSES AND AS AN ANTIPROLIFERATIVE” (BOEHRINGER INGELHEIM INTERNATIONAL GmbH, priority 1992, dated 1994)

Test system: RBL-2H3-Zellen
Experiment: Antigen-induced (DNP-BSA) activation of sensitised RBL-2H3 cells, fluorometric cytoplasmic Ca2+ measurement
Assay type: cell-based, rat
Conditions: 10 µM
Source text: Verwendet werden einzelne an Glasplättchen adhärente RBL-2H3-Zellen (eine den Mastzellen verwandte Tumorzellinie).
Die Kultivierung und Anhaftung der RBL-2H3-Zellen erfolgt in der HIDE und BEAVEN (1991) beschriebenen Methode. Zur Sensibilisierung der adhäsiven RBL-2H3-Zellen werden die Zellen 2 Stunden bei Raumtemperatur mit einer 1:2000 verdünnten käuflichen Gammaglobulin E-Lösung gegen einen Dinitrophenol-Rinderserumalbumin-Komplex (DNP-BSA-Antigen) inkubiert. Anschließend werden die Zellen gewaschen. Durch Zusatz von 0,1 ml DNP-BSA-Lösung (10 µg/ml) erfolgt eine massive immunologische Zellaktivierung, die durch einen cytoplasmatischen Ca^2+-overload vermittelt wird. Die fluorometrische Calciummessung im Cytoplasma einzelner adhärenter RBL-2H3-Zellen erfolgt in Analogie zu der von KUDO und OGURA (1986) für neuronale Zellen beschriebenen Methode, die auch weiter oben in dieser Beschreibung erläutert wird.

## O=C(O)c1cc(=O)c2c(OCC(O)COc3cccc4oc(C(=O)O)cc(=O)c34)cccc2o1 [Chromoglycat]
  Hemmung der antigen-induzierten Zellaktivierung: ca. 50%
